Test results reported in ChEMBL document CHEMBL3870324, “Asnovolins A-G, Spiromeroterpenoids Isolated from the Fungus Aspergillus novofumigatus, and Suppression of Fibronectin Expression by Asnovolin E” (J Nat Prod, 2016).

What was measured:
Homo sapiens [1] = species on record: Homo sapiens; experiment: Inhibition of fibronectin expression in HNDF after 24 hrs by Western blot analysis; type: functional
Homo sapiens [2] = species on record: Homo sapiens; experiment: Inhibition of fibronectin expression in HNDF at 25 uM after 24 hrs by Western blot analysis relative to control; type: functional

## C=C(C)[C@@H]1CC[C@H](C)[C@@]2(C[C@@]3(C)C(=C(C)C(=O)[C@@H](C(=O)OC)[C@@H]3C)O2)[C@@]1(C)CCC(=O)OC
Homo sapiens [1]
  inhibition: Dose-dependent effect
Homo sapiens [2]
  inhibition: 87%
